Where two headings read alike, the source gives them in different places.
What was measured:
[1] = test system: HCV genotype Ib replicon in Huh-luc/neo-ET cells; type: cell-based, HCV genotype 1b; details: for interaction: SPC3649 with 2-methyl cytidine
Description: The anti-viral efficacy and cellular toxicity of non-transfected antimiR oligonucleotide in combination with approved and experimental anti-HCV therapeutics (e.g. BMS-790052) (or other NS5A inhibitors), was determined in the reporter cell line Huh-luc/neo-ET. This cell line harbors the persistently replicating I389luc-ubi-neo/NS3-37ET replicon containing the firefly luciferase gene-ubiquitin-neomycin phosphotransferase fusion protein and EMCV IRES driven NS3-5B HCV coding sequences containing the ET tissue culture adaptive mutations (E1202G, T1208I, and K1846T). Eight dilutions of non-transfected antimiR oligonucleotide (bracketing the calculated EC50) were evaluated in triplicate on duplicate sets of three plates with five dilutions of each of the control compounds (bracketing the calculated EC50). One set of plates was used for the determination of cellular toxicity and the other set of plates was used for the determination of anti-viral efficacy. The efficacy and toxicity results was quantified with firefly luciferase activity and XTT dye reduction, respectively, and the results of the assay is imported into the Prichard and Shipman MacSynergy II software program. The MacSynergy II analysis includes calculation of the dose response of the two (or more) compounds when used alone followed by calculation of the expected additive level of antiviral inhibition or toxicity when the compounds are used together based on the individual dose response curves. The expected level of activity at each of the concentration data points was compared to the experimentally determined antiviral activity in the assay. The expected activity was subtracted from the realized activity, yielding a negative, zero or positive value. […]
The combination antiviral assays were performed using the reporter cell line Huh-luc/neo-ET, which contains a bicistronic HCV genotype Ib replicon. Combination data were analyzed using MacSynergy II software at the 95%, confidence interval. […]

Huh-luc/neo-ET cells = test system: Huh-luc/neo-ET cells
Description: Eight dilutions of non-transfected antimiR oligonucleotide (bracketing the calculated EC50) were evaluated in triplicate on duplicate sets of three plates with five dilutions of each of the control compounds (bracketing the calculated EC50). One set of plates was used for the determination of cellular toxicity and the other set of plates was used for the determination of anti-viral efficacy. The efficacy and toxicity results was quantified with firefly luciferase activity and XTT dye reduction, respectively, and the results of the assay is imported into the Prichard and Shipman MacSynergy II software program. […] The expected level of activity at each of the concentration data points was compared to the experimentally determined antiviral activity in the assay. The expected activity was subtracted from the realized activity, yielding a negative, zero or positive value. […]
The cells were treated with trypsin and enumerated by staining with trypan blue and seeded into 96-well tissue culture plates at a cell culture density 5.0×10^3 cells per well in a volume of 85 f.IL per well and incubated at […] in an environment of 5% CO2 for 24 hours. […] Following incubation, the plates were assessed for anti-HCV activity by measurement of luciferase reporter activity and cellular cytotoxicity by XTT staining.

[2] = test system: HCV genotype 1b replicon NS5B M423I; type: cell-based; details: EC50 mutant / EC50 wild-type; mean of two experiments (individual values); 72 hours
Description: (§1) The objective of this study was to evaluate the in vitro antiviral activity of miravirsen (SPC3649) against wild-type HCV genotype Ib replicon and NS3, NS5A and NS5B drug-resistant HCV genotype 1 b replicons in transient transfection assays utilizing Huh 7 cells. Method: The in vitro antiviral of miravirsen was evaluated against wild-type HCV genotype 1 b replicon and HCV genotype 1 b replicons constructed to contain key amino acid substitutions in NS3 protease (A156T, R155K), NS5B polymerase (S282T, M423I) and NS5A protein (Y93H) in transient transfection assays utilizing Huh 7 cells. […] Huh 7 cells were transfected with either the wild-type or the mutant RNA constructs by electroporation. Luciferase activity was measured 72 hours after compound treatment and EC50 values determined from dose-response curves. Fold resistance was expressed as the ratio of the EC50 for mutant HCV replicon to the EC50 for wild-type HCV replicon.
(§2) The in vitro antiviral of miravirsen was evaluated against wild-type HCV genotype Ib replicon and HCV replicons constructed to contain key amino acid substitutions in NS3 protease (A156T, R155K), NS5B polymerase (S282T, M423I) and NS5A protein (Y93H) in transient transfection assays. […] Huh 7 cells were transfected with either the wild type or the mutant RNA constructs by electroporation. Luciferase activity was measured 72 hours after compound treatment and EC50 values determined from dose-response curves. Fold resistance was expressed as the ratio of the EC50 for mutant HCV replicon to the EC50 for wild-type HCV replicon. Results are expressed as the mean of two individual experiments. In an initial set of experiments, the standard protocol was modified by adding compounds 24 hours after electroporation. […] In a third experiment cells were pretreated with miravirsen for 24 hours before electroporation with wild-type RNA constructs to determine if preincubation could result in increased miravirsen antiviral activity.

[3] = test system: HCV genotype 1b replicon NS5A Y93H; type: cell-based; details: EC50 mutant / EC50 wild-type; mean of two experiments (individual values); 72 hours
Description: as §1, §2

[4] = test system: HCV genotype 1b replicon NS5B S282T; type: cell-based; details: EC50 mutant / EC50 wild-type; mean of two experiments (individual values); 72 hours
Description: as §1, §2

[5] = test system: HCV genotype 1b replicon NS3 A156T; type: cell-based; details: EC50 mutant / EC50 wild-type; mean of two experiments (individual values); 72 hours
Description: as §1, §2

[6] = test system: HCV genotype 1b replicon NS3 R155K; type: cell-based; details: EC50 mutant / EC50 wild-type; mean of two experiments (individual values); 72 hours
Description: as §1, §2

With `C[C@@]1(O)[C@H](O)[C@@H](CO)O[C@H]1n1ccc(N)nc1=O` [2′-C-Methylcytidine] the interaction ([1]; third replicate) was “slightly antagonistic interaction” and the interaction ([1]; two of the assay replicates) was “positive interactions”.
In the case of “5′-Ts·^oc^·sAs·^otsa^·s^mCs·^oTs·^oa^·stsAs·^otsGs·^oa^·s^mCs·^oA·^o-3′ [SPC4729]”, the “overall interaction (antiviral)” value ([1]; ribavirin plus the named compound) was “antagonistic”, the “Cytotoxicity, Synergy vol” value (Huh-luc/neo-ET cells) was 0.00/−44.3 μM^2% and the “Cytotoxicity, Antag Vol” value (Huh-luc/neo-ET cells; Ribavirin plus the named compound, 95% confidence level) was 0.00/−44.3 μM^2%.
With `CC(C)(C)C#Cc1cc(N(C(=O)[C@H]2CC[C@H](C)CC2)[C@H]2CC[C@H](O)CC2)c(C(=O)O)s1` [VX-222] the “Fold Resistance NS5B M423I” value [2] was 4.4 (3.6, 5.2) fold.
“5′-^mCs^ocsAs^otstsGs^oTs^ocsas^mCs^oas^mCs^ots^mCs^omCo-3′ (CCATTGTCACACTCC; all phosphorothioate, sugars by position and methylation of C not given here; further chemistry not fully specified) [miravirsen]” was tested, and the “Fold Resistance NS5A Y93H” value [3] was 0.9 (0.8, 0.9) fold, the “Fold Resistance NS5B S282T” value [4] was 1.9 (2.6, 1.1) fold and the “Fold Resistance NS3 A156T” value [5] was 1.0 (1.4, 0.5) fold. The “Fold Resistance NS5B M423I” value [2] was 1.7 (2.3, 1.0) fold and the “Fold Resistance NS3 R155K” value [6] was 1.2 (1.9, 0.4) fold.
In the case of `CCC[C@H](NC(=O)[C@@H]1[C@H]2CCC[C@H]2CN1C(=O)[C@@H](NC(=O)[C@@H](NC(=O)c1cnccn1)C1CCCCC1)C(C)(C)C)C(=O)C(=O)NC1CC1` [Telaprevir, (1S,3aR,6aS)-2-[(2S)-2-[[(2S)-2-Cyclohexyl-2-(pyrazine-2-carbonylamino)acetyl]amino]-3,3-dimethylbutanoyl]-N-[(3S)-1-(cyclopropylamino)-1,2-dioxohexan-3-yl]-3,3a,4,5,6,6a-hexahydro-1H-cyclopenta[c]pyrrole-1-carboxamide], the “Fold Resistance NS3 R155K” value [6] was 4.6 (5.0, 4.2) fold.
